# In patent US7932262B2 (Novartis AG, priority 2006, dated 2011):
# pEC50, pIC50: −log10 of the molar value.
# Key:
# PDK1 kinase = molecular target: T1, PDK1 kinase (Homo sapiens, UniProt O15530); assay: PDK1 Kinase Alpha Screen Assay; format: biochemical; conditions: PDK1 Kinase Alpha Screen Assay; read-out: PDK1 IC50
# T1 sequence (O15530 1-556): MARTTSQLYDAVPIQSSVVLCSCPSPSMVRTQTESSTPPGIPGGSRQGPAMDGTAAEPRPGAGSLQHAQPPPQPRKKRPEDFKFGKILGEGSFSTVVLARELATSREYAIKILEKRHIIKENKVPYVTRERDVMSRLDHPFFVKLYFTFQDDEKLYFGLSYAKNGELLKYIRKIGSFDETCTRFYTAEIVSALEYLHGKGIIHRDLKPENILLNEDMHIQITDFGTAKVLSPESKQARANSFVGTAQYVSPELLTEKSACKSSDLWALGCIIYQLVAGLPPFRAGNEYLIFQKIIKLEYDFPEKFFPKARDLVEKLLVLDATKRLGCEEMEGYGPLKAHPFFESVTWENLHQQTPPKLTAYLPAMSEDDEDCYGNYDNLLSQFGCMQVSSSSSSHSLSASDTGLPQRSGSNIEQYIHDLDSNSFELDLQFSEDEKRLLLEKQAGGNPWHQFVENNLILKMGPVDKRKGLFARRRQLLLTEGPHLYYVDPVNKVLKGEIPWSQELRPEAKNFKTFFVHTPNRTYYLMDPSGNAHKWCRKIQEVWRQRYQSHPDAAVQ
# How it was run: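 Test compounds were incubated with PDK1 kinase, 10 uM ATP and 50 nM biotinylated peptide substrate for 3-18 hours at pH 7.5 with 2.5% DMSO. Peptide phosphorylation was then detected by AlphaScreen proximity luminescence using a phospho-(Ser/Thr) PKA substrate antibody.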
# PC3MM cells = assay: Cell Proliferation Assay (Cell Titer Glo), PC3MM; format: cell-based; conditions: cell proliferation, PC3MM cells; read-out: CPEC50 PC3MM
# How it was run: (§1)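 Cells seeded at 1000/well, allowed to adhere 3-5 h, then exposed to DMSO-dissolved compounds for 3 days at 37° C., 5% CO2. Medium replaced before Cell Titer Glo addition; luminescence read after 10 min.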
# A2780 cells = assay: Cell Proliferation Assay (Cell Titer Glo), A2780; format: cell-based; conditions: Homo sapiens; cell proliferation, A2780 cells; read-out: CPEC50 A2780
# How it was run: as §1
SMILES,pIC50 (PDK1 kinase),pEC50 (PC3MM cells),pEC50 (A2780 cells)
"CN1CCN(C(=O)c2cccc3cnc(Nc4ccc(S(N)(=O)=O)cc4)nc23)CC1 [Compound 769, 4-(8-(4-methylpiperazine-1-carbonyl)quinazolin-2-ylamino)benzenesulfonamide]",> 5.30,> 5.30,5.00 to 5.30
"O=S(=O)(c1cccc(Nc2ncc3cccc(OC4CCNCC4)c3n2)c1)N1CCOCC1 [Compound 773, N-(3-(morpholinosulfonyl)phenyl)-8-(piperidin-4-yloxy)quinazolin-2-amine]",> 5.30,> 5.30,> 5.30
"CC(C)N1CCC(Oc2cccc3cnc(Nc4cccc(S(=O)(=O)N5CCOCC5)c4)nc23)CC1 [Compound 774, 8-(1-isopropylpiperidin-4-yloxy)-N-(3-(morpholinosulfonyl)phenyl)quinazolin-2-amine]",> 5.30,> 5.30,> 5.30
"CC(C)NS(=O)(=O)c1cccc(Nc2ncc3cccc(OC4CCNCC4)c3n2)c1 [Compound 776, N-isopropyl-3-(8-(piperidin-4-yloxy)quinazolin-2-ylamino)benzenesulfonamide]",> 5.30,> 5.30,> 5.30
"COCCNS(=O)(=O)c1cccc(Nc2ncc3cccc(OC4CCNCC4)c3n2)c1 [Compound 777, N-(2-methoxyethyl)-3-(8-(piperidin-4-yloxy)quinazolin-2-ylamino)benzenesulfonamide]",> 5.30,> 5.30,5.00 to 5.30
NC(=O)c1cccc(-c2ccc3cnc(Nc4ccc(S(N)(=O)=O)cc4)nc3c2)c1 [Compound 782],> 5.30,> 5.30,5.00 to 5.30
"NC(=O)c1ccc(-c2ccc3cnc(Nc4ccc(S(N)(=O)=O)cc4)nc3c2)cc1 [Compound 783, 4-(2-(4-sulfamoylphenylamino)quinazolin-7-yl)benzamide]",> 5.30,> 5.30,5.00 to 5.30
"NC(=O)c1ccc(-c2ccc3cnc(Nc4ccc(S(N)(=O)=O)cc4)nc3c2)cn1 [Compound 790, 5-(2-(4-sulfamoylphenylamino)quinazolin-7-yl)picolinamide]",> 5.30,> 5.30,5.00 to 5.30
"NS(=O)(=O)c1ccc(Nc2ncc3ccc(-c4cn[nH]c4)cc3n2)cc1 [Compound 792, 4-(7-(1H-pyrazol-4-yl)quinazolin-2-ylamino)benzenesulfonamide]",> 5.30,> 5.30,> 5.30
"CNC(=O)c1ccc(Nc2ncc3cccc(OC4CCN(C(C)C)CC4)c3n2)cc1 [Compound 796, 4-(8-(1-isopropylpiperidin-4-yloxy)quinazolin-2-ylamino)-N-methylbenzamide]",> 5.30,> 5.30,> 5.30
"COc1cncc(-c2ccc3cnc(Nc4ccc(S(N)(=O)=O)cc4)nc3c2)c1 [Compound 801, 4-(7-(5-methoxypyridin-3-yl)quinazolin-2-ylamino)benzenesulfonamide]",> 5.30,> 5.30,> 5.30
"NS(=O)(=O)c1ccc(Nc2ncc3ccc(-c4ccc(C(=O)N5CCOCC5)cc4)cc3n2)cc1 [Compound 802, 4-(7-(4-(morpholine-4-carbonyl)phenyl)quinazolin-2-ylamino)benzenesulfonamide]",> 5.30,> 5.30,5.00 to 5.30
"NS(=O)(=O)c1ccc(Nc2ncc3cccc(C(=O)N[C@H]4CN5CCC4CC5)c3n2)cc1 [Compound 807, (R)-N-(quinuclidin-3-yl)-2-(4-sulfamoylphenylamino)quinazoline-8-carboxamide]",5.00 to 5.30,5.00 to 5.30,5.00 to 5.30
"NS(=O)(=O)c1ccc(Nc2ncc3cccc(C(=O)N4CCNC(=O)C4)c3n2)cc1 [Compound 808, 4-(8-(3-oxopiperazine-1-carbonyl)quinazolin-2-ylamino)benzenesulfonamide]",> 5.30,> 5.30,5.00 to 5.30
"NS(=O)(=O)c1ccc(Nc2ncc3cccc(C(=O)N[C@@H]4CN5CCC4CC5)c3n2)cc1 [Compound 809, (S)-N-(quinuclidin-3-yl)-2-(4-sulfamoylphenylamino)quinazoline-8-carboxamide]",> 5.30,> 5.30,5.00 to 5.30
"O=S(=O)(NC1CC1)c1cccc(Nc2ncc3cccc(OC4CCNCC4)c3n2)c1 [Compound 812, N-cyclopropyl-3-(8-(piperidin-4-yloxy)quinazolin-2-ylamino)benzenesulfonamide]",> 5.30,> 5.30,> 5.30

# Further lines, results first:
pIC50 (PDK1 kinase),pEC50 (PC3MM cells),pEC50 (A2780 cells),SMILES
> 5.30,> 5.30,5.00 to 5.30,"CN1CCC(NC(=O)c2ccc3cnc(Nc4ccc(S(N)(=O)=O)cc4)nc3c2)CC1 [Compound 767, N-(1-methylpiperidin-4-yl)-2-(4-sulfamoylphenylamino)quinazoline-7-carboxamide]"
5.00 to 5.30,5.00 to 5.30,5.00 to 5.30,"NS(=O)(=O)c1ccc(Nc2ncc3cccc(C(=O)N4CCOCC4)c3n2)cc1 [Compound 768, 4-(8-(morpholine-4-cartbonyl)quinazolin-2-ylamino)benzenesulfonamide]"
4.60 to 5.00,4.60 to 5.00,5.00 to 5.30,NS(=O)(=O)c1ccc(Nc2ncc3cccc(C(=O)N4CCS(=O)(=O)CC4)c3n2)cc1 [Compound 770]
> 5.30,> 5.30,5.00 to 5.30,"CN1CCN(S(=O)(=O)c2cccc(Nc3ncc4cccc(OC5CCNCC5)c4n3)c2)CC1 [Compound 775, N-(3-(4-methylpiperazin-1-ylsulfonyl)phenyl)-8-(piperidin-4-yloxy)quinazolin-2-amine]"
> 5.30,> 5.30,> 5.30,"CN1CCN(S(=O)(=O)c2ccc(Nc3ncc4cccc(OC5CCNCC5)c4n3)cc2)CC1 [Compound 778, N-(4-(4-methylpiperazin-1-ylsulfonyl)phenyl)-8-(piperidin-4-yloxy)quinazolin-2-amine]"
> 5.30,> 5.30,5.00 to 5.30,"NS(=O)(=O)c1ccc(Nc2ncc3ccc(-c4cccc(S(N)(=O)=O)c4)cc3n2)cc1 [Compound 786, 3-(2-(4-sulfamoylphenylamino)quinazolin-7-yl)benzenesulfonamide]"
> 5.30,> 5.30,> 5.30,"Nc1ccc(-c2ccc3cnc(Nc4ccc(S(N)(=O)=O)cc4)nc3c2)cn1 [Compound 789, 4-(7-(6-aminopyridin-3-yl)quinazolin-2-ylamino)benzenesulfonamide]"
> 5.30,> 5.30,> 5.30,"NS(=O)(=O)c1ccc(Nc2ncc3ccc(-c4cccnc4)cc3n2)cc1 [Compound 793, 4-(7-(pyridin-3-yl)quinazolin-2-ylamlno)benzenesulfonamide]"
4.60 to 5.00,4.60 to 5.00,5.00 to 5.30,"CN1CCN(C(=O)c2ccc3cnc(Nc4ccc(S(N)(=O)=O)cc4)nc3c2)CC1 [Compound 798, 4-(7-(4-methylpiperazine-1-carbonyl)quinazolin-2-ylamino)benzenesulfonamide]"
> 5.30,> 5.30,5.00 to 5.30,"NS(=O)(=O)c1ccc(Nc2ncc3cccc(C(=O)NC4CCCNC4)c3n2)cc1 (stereo not drawn) [Compound 803, N-(piperidin-3-yl)-2-(4-sulfamoylphenylamino)quinazoline-8-carboxamide]"
> 5.30,> 5.30,5.00 to 5.30,"CN(C)[C@@H]1CCN(C(=O)c2cccc3cnc(Nc4ccc(S(N)(=O)=O)cc4)nc23)C1 [Compound 804, (R)-4-(8-(3-(dimethylamino)pyrrolidine-1-carbonyl)quinazolin-2-ylamino)benzenesulfonamide]"
> 5.30,> 5.30,5.00 to 5.30,"NS(=O)(=O)c1ccc(Nc2ncc3cccc(C(=O)NC4CCNCC4)c3n2)cc1 [Compound 805, N-(piperidin-4-yl)-2-(4-sulfamoylphenylamino)quinazoline-8-carboxamide]"
> 5.30,> 5.30,5.00 to 5.30,"CN(C)[C@H]1CCN(C(=O)c2cccc3cnc(Nc4ccc(S(N)(=O)=O)cc4)nc23)C1 [Compound 806, (S)-4-(8-(3-(dimethylamino)pyrrolidine-1-carbonyl)quinazolin-2-ylamino)benzenesulfonamide]"
> 5.30,> 5.30,5.00 to 5.30,"O=S(=O)(NCCN1CCCC1)c1cccc(Nc2ncc3cccc(OC4CCNCC4)c3n2)c1 [Compound 811, 3-(8-(piperidin-4-yloxy)quinazolin-2-ylamino)-N-(2-(pyrrolidin-1-yl)ethyl)benzenesulfonamide]"
> 5.30,> 5.30,> 5.30,"NS(=O)(=O)c1ccc(Nc2ncc3ccc(-c4ccc5cn[nH]c5c4)cc3n2)cc1 [Compound 813, 4-(7-(1H-indazol-6-yl)quinazolin-2-ylamino)benzenesulfonamide]"
